From paper PMC6284057, “Combined Antibacterial Effects of Goat Cathelicidins With Different Mechanisms of Action” (Frontiers in Microbiology, 2018) come the findings set out here.

Values after ≈ are worked out from the molar mass of the structure shown. Bounds are passed on as bounds.

Assay [1] concerns P. mirabilis (XDR CI 3423). As to the kind of experiment: microbe, parasite or virus in culture. In kind it is cell-based, Proteus mirabilis. The settings on record: Proteus mirabilis; Table S2, XDR clinical isolate; NaCl content of medium not stated; read-out: Minimum inhibitory concentration. The method, then:
(§1) Antimicrobial assay was performed as described previously ([Panteleev et al., 2017b]). Briefly, mid-log phase bacterial test cultures were diluted with the 2× Mueller-Hinton broth (MH, Sigma) supplemented with 1.8% NaCl or without it so that to reach a final cell concentration of 10^6 CFU/ml. 50 μl aliquots of the obtained bacterial suspension were added to 50 μl of the peptide solutions serially diluted with 0.1% water solution of bovine serum albumin (BSA) in 96-well flat-bottom polystyrene microplates (Eppendorf #0030730011). After incubation at 37°C and 900 rpm for 24 h the minimum inhibitory concentrations (MIC) were determined as the lowest peptide concentrations that prevented growth of a test microorganism observed as visible turbidity. The results were expressed as the median values determined on the basis of at least three independent experiments performed in triplicate.

For a further assay, the system named is E. cloacae (XDR CI 4172). As to the kind of experiment: microbe, parasite or virus in culture. Format: cell-based, Enterobacter cloacae. The settings on record: Enterobacter cloacae; Table S2, XDR clinical isolate; NaCl content of medium not stated; read-out: Minimum inhibitory concentration. The method, then: as §1
For assay [2], the system named is P. aeruginosa (XDR CI 1049). As to the kind of experiment: microbe, parasite or virus in culture. The settings on record: Pseudomonas aeruginosa; Table S2, XDR clinical isolate; NaCl content of medium not stated; read-out: Minimum inhibitory concentration. In kind it is cell-based, Pseudomonas aeruginosa. The method, then:
as §1

Another assay deals with E. coli (XDR CI 1057). Description: microbe, parasite or virus in culture. Format: cell-based, Escherichia coli. The conditions noted are these: Escherichia coli, read-out: Minimum inhibitory concentration. The method, then: as §1
Assay [3] relates to K. pneumoniae (XDR CI 1056). As to the kind of experiment: microbe, parasite or virus in culture. The conditions noted are these: Klebsiella pneumoniae; Table S2, XDR clinical isolate; NaCl content of medium not stated; read-out: Minimum inhibitory concentration. Format: cell-based, Klebsiella pneumoniae. The method, then: as §1
Assay [4] concerns A. baumannii (XDR CI 2675). Description: microbe, parasite or virus in culture. Format: cell-based, Acinetobacter baumannii. The conditions noted are these: Acinetobacter baumannii; Table S2, XDR clinical isolate; NaCl content of medium not stated; read-out: Minimum inhibitory concentration. The method, then:
as §1

Assay [5] deals with in vitro translation of EGFP, E. coli BL21 Star (DE3) cell lysate. Description: Cell-free protein expression assay (EGFP). The conditions noted are these: EGFP fluorescence, 1.5 h, 30°C. In kind it is biochemical, Escherichia coli. The method, then: The cell lysate used for translation inhibition assay was prepared using the E. coli BL21 Star (DE3) cell culture grown at 30°C in the 2x YTPG liquid medium (1% yeast extract, 1.6% tryptone, 0.5% NaCl, 22 mM NaH2PO4, 40 mM Na2HPO4, 0.1 M glucose). The chromosome of DE3 strains contains a gene encoding T7 RNA polymerase under control of the lacUV5 promoter. The bacterial culture was grown to OD600 0.8–1.0, then T7 RNA polymerase gene was induced by adding 0.2 mM IPTG. Bacteria were harvested at OD600 5.0–6.0 by centrifugation (3000 g, 30 min, 4°C). The bacterial pellet was washed three times by suspending it in four volumes of wash buffer (10 mM Tris-acetate buffer, pH 8.2, 60 mM potassium glutamate, 14 mM magnesium acetate, 1 mM DTT), then resuspended in one volume of the same buffer (1 ml per 1 g of wet cell mass) and disrupted by sonication at 5–15°C. The total cell lysate was centrifuged at 15000 g (30 min, 4°C). The supernatant was split into aliquots and stored at -70°C.
In order to investigate the effect of AMPs on the translation process, the peptides were added to a cell-free protein synthesis (CFPS) reaction mix with a plasmid encoding EGFP variant (F64L, S65T, Q80R, F99S, M153T, and V163A) under a control of the T7 promoter. The reaction mix consisted of the following components: 1.2 mM ATP, 0.8 mM UTP, 0.8 mM GTP, 0.8 mM CTP, 2 mM of each of 20 proteinogenic amino acids, 1.5 mM spermidine, 1 mM putrescine dihydrochloride, 0.06647 mM calcium folinate, 170 ng/ml tRNA from the E. coli MRE 600 strain, 0.33 mM NAD, 120 mM HEPES-KOH (pH 8.0), 10 mM ammonium glutamate, 175 mM potassium glutamate, 60 mM glucose, 15 mM magnesium glutamate, 2% PEG 8000, 25% E. coli BL21 Star (DE3) cell lysate, 10 ng/μl plasmid DNA. The reaction volume was 50 μl. […] Fluorescence of the sample without inhibitor was set as the 100% value. […] Fluorescence of the synthesized EGFP was measured with the microplate reader AF2200 (λExc = 488 nm, λEm = 510 nm). […] IC50 values were determined by interpolation from non-linear regression curves using the GraphPad Prism 6.0 software.

As to `C[C@@H](O)[C@H]1C(=O)N2C(C(=O)O)=C(S[C@@H]3CN[C@H](C(=O)N(C)C)C3)[C@H](C)[C@H]12` [Meropenem, reference compound], the MIC was over 128 µM in assay [1]; 0.5 µM (≈ 0.192 µg/mL) in the assay with E. cloacae (XDR CI 4172); 64 µM (≈ 24.5 µg/mL) in assay [2]; 0.125 µM (≈ 0.0479 µg/mL) in the assay with E. coli (XDR CI 1057); 16 µM (≈ 6.14 µg/mL) in assay [3]; 0.5 µM (≈ 0.192 µg/mL) in assay [4].
For `[H]/N=C(/N)N[C@H]1[C@H](O)[C@@H](O)[C@H](O[C@@H]2O[C@@H](C)[C@](O)(C=O)[C@H]2O[C@@H]2O[C@@H](CO)[C@H](O)[C@@H](O)[C@@H]2NC)[C@@H](N/C(N)=N\[H])[C@@H]1O` [streptomycin], the “concentration of full inhibition of in vitro protein synthesis” value in assay [5] is over 1 µM. Also, the concentration for half-maximal inhibition (IC50) in assay [5] (at least 3 independent experiments, read-out: IC50, inhibition of in vitro protein synthesis) came out at 200 nM.
KWCFRVCYRGICYRRCR [Tachyplesin-1]: in assay [5], the “inhibition of protein biosynthesis, in words” value is listed as “comparable level of inhibition”.

One may read the IC50 as the midpoint of a concentration-inhibition curve.
